According to ChEMBL document CHEMBL4257508, “The semi-synthesis, biological evaluation and docking analysis of the oxime, hydrazine and hydrazide derivatives of platensimycin” (Medchemcomm, 2018):
≈ marks a conversion by molar mass, not a printed value.

Legend:
Klebsiella pneumoniae = experiment: Antibacterial activity against Klebsiella pneumoniae after 16 hrs by agar dilution method; assay type: functional
Escherichia coli = experiment: Antibacterial activity against Escherichia coli after 16 hrs by agar dilution method; assay type: functional
Staphylococcus aureus [1] = experiment: Antibacterial activity against Staphylococcus aureus ATCC 29213 after 16 hrs by agar dilution method; assay type: functional; conditions: ATCC 29213, 16 h
Staphylococcus aureus [2] = experiment: Antibacterial activity against methicillin-sensitive Staphylococcus aureus after 16 hrs by agar dilution method; assay type: functional
Staphylococcus aureus [3] = experiment: Antibacterial activity against methicillin-resistant Staphylococcus aureus after 16 hrs by agar dilution method; assay type: functional
[4] = Stability of the compound in LB agar after 16 hrs by UPLC analysis; assay type: physicochemical

MIC (Klebsiella pneumoniae)	MIC (Escherichia coli)	Stability [4]	SMILES	MIC (Staphylococcus aureus [1])	MIC (Staphylococcus aureus [2])	MIC (Staphylococcus aureus [3])
> 64 µg/mL	> 64 µg/mL		C[C@@]1(CCC(=O)Nc2c(O)ccc(C(=O)O)c2O)[C@H](O)CC[C@]23C[C@H]4C[C@H](O[C@@]4(C)C2)[C@H]31	> 64 µg/mL	> 64 µg/mL	
> 64 µg/mL	> 64 µg/mL		C[C@]12C[C@@]34C=C/C(=N\NC(N)=O)[C@@](C)(CCC(=O)Nc5c(O)ccc(C(=O)O)c5O)[C@@H]3[C@H](C[C@@H]1C4)O2		8 µg/mL (≈ 16 µM)	
> 64 µg/mL	> 64 µg/mL		COc1ccc(O)c(C(=O)N/N=C2\C=C[C@]34C[C@H]5C[C@H](O[C@@]5(C)C3)[C@H]4[C@]2(C)CCC(=O)Nc2c(O)ccc(C(=O)O)c2O)c1		16 µg/mL (≈ 26.4 µM)	
> 64 µg/mL	> 64 µg/mL	Stable	CC(C)(C)OC(=O)N/N=C1\C=C[C@]23C[C@H]4C[C@H](O[C@@]4(C)C2)[C@H]3[C@]1(C)CCC(=O)Nc1c(O)ccc(C(=O)O)c1O		16 µg/mL (≈ 28.8 µM)	
			C=C1C[C@@]23C=CC(=O)[C@@](C)(CCC(=O)Nc4c(O)ccc(C(=O)O)c4O)[C@@H]2C[C@@H]1CC3 [PLATENCIN]	1 µg/mL (≈ 2.35 µM)	1 µg/mL (≈ 2.35 µM)	1 µg/mL (≈ 2.35 µM)
> 64 µg/mL	> 64 µg/mL		C[C@]12C[C@@]34C=C/C(=N\NC(N)=S)[C@@](C)(CCC(=O)Nc5c(O)ccc(C(=O)O)c5O)[C@@H]3[C@H](C[C@@H]1C4)O2		16 µg/mL (≈ 31.1 µM)	
			CC(=O)NC[C@H]1CN(c2ccc(N3CCOCC3)c(F)c2)C(=O)O1 [LINEZOLID]	1 µg/mL (≈ 2.96 µM)	1 µg/mL (≈ 2.96 µM)	1 µg/mL (≈ 2.96 µM)
> 64 µg/mL	> 64 µg/mL		C[C@]1(CCC(=O)Nc2c(O)ccc(C(=O)O)c2O)[C@@H]2[C@@H]3C[C@@H]4C[C@@]2(C=C[C@@H]1O)C[C@]4(C)O3	> 64 µg/mL	> 64 µg/mL	
> 64 µg/mL	> 64 µg/mL		C[C@]12C[C@@]34C=C/C(=N\NC(=O)c5ccc(O)cc5)[C@@](C)(CCC(=O)Nc5c(O)ccc(C(=O)O)c5O)[C@@H]3[C@H](C[C@@H]1C4)O2			
> 64 µg/mL	> 64 µg/mL	Stable	C[C@]12C[C@@]34C=C/C(=N\NC(=O)c5ccccc5)[C@@](C)(CCC(=O)Nc5c(O)ccc(C(=O)O)c5O)[C@@H]3[C@H](C[C@@H]1C4)O2	32 µg/mL (≈ 57.2 µM)	32 µg/mL (≈ 57.2 µM)	
> 64 µg/mL	> 64 µg/mL		CC(=O)N/N=C1\C=C[C@]23C[C@H]4C[C@H](O[C@@]4(C)C2)[C@H]3[C@]1(C)CCC(=O)Nc1c(O)ccc(C(=O)O)c1O			
> 64 µg/mL	> 64 µg/mL	Stable	C[C@]12C[C@@]34C=C/C(=N\NC(=O)Cc5ccccc5)[C@@](C)(CCC(=O)Nc5c(O)ccc(C(=O)O)c5O)[C@@H]3[C@H](C[C@@H]1C4)O2	8 µg/mL (≈ 13.9 µM)	8 µg/mL (≈ 13.9 µM)	
			C[C@]12C[C@@]34C=CC(=O)[C@@](C)(CCC(=O)Nc5c(O)ccc(C(=O)O)c5O)[C@@H]3[C@H](C[C@@H]1C4)O2	0.5 µg/mL (≈ 1.13 µM)	0.5 µg/mL (≈ 1.13 µM)	1 µg/mL (≈ 2.27 µM)
> 64 µg/mL	> 64 µg/mL		CC(C)(C)c1ccc(C(=O)N/N=C2\C=C[C@]34C[C@H]5C[C@H](O[C@@]5(C)C3)[C@H]4[C@]2(C)CCC(=O)Nc2c(O)ccc(C(=O)O)c2O)cc1	32 µg/mL (≈ 52 µM)	16 µg/mL (≈ 26 µM)	

SMILES	MIC (Klebsiella pneumoniae)	MIC (Escherichia coli)	Stability [4]	MIC (Staphylococcus aureus [1])	MIC (Staphylococcus aureus [2])	MIC (Staphylococcus aureus [3])
C[C@]12C[C@@]34C=C/C(=N\c5ccccc5)[C@@](C)(CCC(=O)Nc5c(O)ccc(C(=O)O)c5O)[C@@H]3[C@H](C[C@@H]1C4)O2	> 64 µg/mL	> 64 µg/mL	Stable	2 µg/mL (≈ 3.87 µM)	1 µg/mL (≈ 1.94 µM)	2 µg/mL (≈ 3.87 µM)
C[C@]12C[C@]34C[C@H]1C[C@H](O2)[C@H]3[C@](C)(CCC(=O)Nc1c(O)ccc(C(=O)O)c1O)/C(=N/O)C[C@@H]4NO	> 64 µg/mL	> 64 µg/mL		16 µg/mL (≈ 32.7 µM)	16 µg/mL (≈ 32.7 µM)	16 µg/mL (≈ 32.7 µM)
C[C@]12C[C@@]34C=C/C(=N\O)[C@@](C)(CCC(=O)Nc5c(O)ccc(C(=O)O)c5O)[C@@H]3[C@H](C[C@@H]1C4)O2	> 64 µg/mL	> 64 µg/mL		32 µg/mL (≈ 70.1 µM)	16 µg/mL (≈ 35 µM)	32 µg/mL (≈ 70.1 µM)
CCO/N=C1\C=C[C@]23C[C@H]4C[C@H](O[C@@]4(C)C2)[C@H]3[C@]1(C)CCC(=O)Nc1c(O)ccc(C(=O)O)c1O	> 64 µg/mL	> 64 µg/mL		> 64 µg/mL	> 64 µg/mL	
CO/N=C1\C=C[C@]23C[C@H]4C[C@H](O[C@@]4(C)C2)[C@H]3[C@]1(C)CCC(=O)Nc1c(O)ccc(C(=O)O)c1O	> 64 µg/mL	> 64 µg/mL	Stable	> 64 µg/mL	> 64 µg/mL	
C[C@]12C[C@@]34CCC(=O)[C@@](C)(CCC(=O)Nc5c(O)ccc(C(=O)O)c5O)[C@@H]3[C@H](C[C@@H]1C4)O2	> 64 µg/mL	> 64 µg/mL		2 µg/mL (≈ 4.51 µM)	2 µg/mL (≈ 4.51 µM)	2 µg/mL (≈ 4.51 µM)
C[C@]1(CCC(=O)Nc2c(O)ccc(C(=O)O)c2O)[C@@H]2[C@@H]3C[C@@H]4C[C@@]2(CC[C@@H]1O)C[C@]4(C)O3	> 64 µg/mL	> 64 µg/mL		> 64 µg/mL	> 64 µg/mL	
C[C@@]1(CCC(=O)Nc2c(O)ccc(C(=O)O)c2O)[C@H](O)C=C[C@]23C[C@H]4C[C@H](O[C@@]4(C)C2)[C@H]31	> 64 µg/mL	> 64 µg/mL		> 64 µg/mL	> 64 µg/mL	
